Assay results from US9855320B2, “Angiogenin for treatment of glaucoma” (CHUNG-ANG UNIVERSITY INDUSTRY-ACADEMIC COOPERATION …, priority 2011, dated 2018).

Columns and labels:
caspase-3 = assay: Reverse transcription polymerase chain reaction on injured tissue of corneal chemical burn model, caspase-3; format: in vivo, rat; details: third day and seventh day after keratoconjunctival chemical injury
Protocol: (§1) Three days, and 1, 2, 4, and 8 weeks after injuring, corneal opacity and neoangiogenesis level were assessed in consideration of images of anterior ocular segment, and on the third day and the seventh day, the respective conjunctiva damaged parts were collected and then subjected to a reverse transcription polymerase chain reaction to assay expression of IL-1a, TGF-β, SDF-1, and caspase-3.
(§2) Tissues obtained from chronic intraocular pressure increase model and corneal chemical burn model were frozen, and then cut into small parts by using a fine knife. The tissue parts were treated with 1 ml of TRI reagent (Molecular Research Center, Inc.) and then, tissue and cell were lysed by homogenizer. The respective implication cDNA […] 0.2 mM dNTP, 10×buffer, 10 pmols primer, and 0.2 U Taq polymerase were mixed to obtain a volume of 20 μl, and then, PCR thermal cycler (a machine for PCR) was used for reaction for 5 minutes at 95° C., 40 second at 94° C., 40 seconds at 48 to 64° C., 40 seconds (35 cycles) at 72° C., and 10 minutes at 72° C. The amplified polymerase chain reaction product was identified by 1% agarose gel electrophoresis. β actin was used as a positive control for the polymerase chain reaction, and relative expression morphs of a target gene with respect to β actin expression were compared. […]

[1] = tested on: chronic intraocular pressure increase rat model; assay: Intraocular pressure in chronic intraocular pressure increase rat model (episcleral venous electric ablation); format: in vivo
Protocol: (§3) 0.05 cc/50 g of Tiletimine and Zolazepam-mixed medicament (Zoletil) and Xylazine (Rompum) were mixed at a ratio of 1:1 and then administered to 20 rats by intramuscular injection, thereby anesthetizing the rats. A limbus periphery was divided into four portions, each of which was then subjected to 2 mm dissection at an interval of 90 degrees, and then, two radial conjunctival excisions were performed on upper dissection periphery. […] After surgical isolation of vein, the vein was lifted up by using 3 mm-width spatula to be spaced apart from the peripheral tissue, and then, was subjected to electric ablation while being careful for the peripheral tissue not to have any thermal damage or any mechanical damage due to contact. Intraocular pressure was consecutively measured three or more times by using Tonopen (Solan, Fla., USA), and only reliable intraocular pressure values within 5 percentile were recorded. 10 eyes of 10 rats were daily treated 4 times with angiogenin 10 μl 2 days before test, and even after espisderal venous electric ablation, 4 times a day at time intervals of 6 hours. The other 10 eyes of the rats, as a control, were consecutively treated in the same manner with physiological saline solution 10 μl before and after the ablation. Before the operation, and 3 days, and 1, 2, 4, and 8 weeks after the operation, intraocular pressure was measured, and the rats were sacrificed to extract eyes therefrom, which were then subjected to tissue examination and immunechemical staining with respect to Brn-3a and CD11b, and a reverse transcription polymerase chain reaction was used to measure CD11b value in retinal tissue.

IL-1a = assay: Reverse transcription polymerase chain reaction on injured tissue of corneal chemical burn model, IL-1a; format: in vivo, rat; details: third day and seventh day after keratoconjunctival chemical injury
Protocol: as §1, §2

glaucoma white rats = assay: Intraocular pressure change due to instillation in glaucoma white rats (day-time and night-time); format: in vivo, rat
Protocol: Male white rats were used to prepare an episcleral venous ablation glaucoma model. The rat was anesthetized and a limbus periphery was divided into four portions, each of which was then subjected to 2 mm dissection at an interval of 90 degrees, and then, two radial conjunctival excisions were performed on upper dissection periphery. […] Episcleral vein is distinguishable because it is located […] than extra ocular muscle, has relatively low fluidity and a relatively large diameter, contains darker blood in vessel, and is connected to peripheral venous plexus. After surgical isolation of vein, the vein was lifted up by using 3 mm-width wooden spatula to be spaced apart from the peripheral tissue, and then, was subjected to electric ablation while being careful for the peripheral tissue not to have any thermal injury or any mechanical injury due to the contact. After the operation, a chloramphenical ophthalmic agent was administered thereto. Intraocular pressure was consecutively measured three or more times by using Tonopen (Solan, Fla., USA), and only reliable intraocular pressure values within 5% or less were recorded. Only used were rats that had higher intraocular pressure than that before the operation by 5 mmHg or more when measured on the first day, the third day, one week and two weeks before and after operation.
Also, steroid-induced glaucoma model was prepared as follows: 1% prednisolone was instilled twice a day in an amount of 4 μl for 30 days, and only rats that had higher intraocular pressure by 5 mmHg or more before operation were used.
(§4) White rats were grouped as a physiological saline solution instillation group, an angiogenin (recombinant human angiogenin, R&D systems, USA) 50 μg/ml instillation group, an angiogenin fragment (angiogenin 108-122, SEQ ID NO: 1, BACHEM, USA) instillation group, and a latanoprost 50 μg/ml instillation group, and each group consisted of 6 rats, that is, 12 eyes. Instillation test was repeatedly performed on normal rats and glaucoma model rats. Ophthalmic agent was administered at 8 AM and 8 PM in an amount of 4 μl to compare day-time effects and night-time effects, and 1, 3, 6, 9, 12, and 24 hours after the instillation, intraocular pressure was measured.

CD11b = assay: Reverse transcription polymerase chain reaction of CD11b in retinal tissue, chronic intraocular pressure increase model; format: in vivo; details: seventh day after episcleral venous electric ablation, compared to the control and the normal rat group
Protocol: as §3, with “10 eyes of 10 rats were daily treated 4 times with angiogenin 10 μl 2 days before test, and even after espisderal venous electric ablation, 4 times a day at time intervals of 6 hours. The other 10 eyes of the rats, as a control, were consecutively treated in the same manner with physiological saline solution 10 μl before and after the ablation.” left out, “tissue. […]” for “tissue.”

SDF-1 = assay: Reverse transcription polymerase chain reaction on injured tissue of corneal chemical burn model, SDF-1; format: in vivo, rat; details: third day and seventh day after keratoconjunctival chemical injury
Protocol: as §1, §2

normal white rat = assay: Intraocular pressure change due to instillation in normal white rats (day-time and night-time); format: in vivo
Protocol: as §4

Q: What does the source list for “angiogenin: recombinant human angiogenin (R&D systems); 14.4 kDa single chain protein of 123 amino acids, a ribonuclease inducing angiogenesis”?
A: caspase-3 expression compared to the control (caspase-3): less expressed; average intraocular pressure ([1]; 1 week after the treatment, control 27.8±4.1): 21.4±6.2 mmHg; average intraocular pressure ([1]; 2 weeks after the treatment, control 25±3.0): 20.8±4.0 mmHg; average intraocular pressure ([1]; 4 weeks after the treatment, control 25.6±1.6): 23.6±2.0 mmHg; average intraocular pressure ([1]; 8 weeks after the treatment, control 23.0±2.4): 21.7±3.4 mmHg; average intraocular pressure compared to the control (in words) ([1]; 3 days, and 1, 2, and 4 weeks after the episcleral venous injury): significantly lower; average intraocular pressure ([1]; before test, 10 eyes): 20.6±1.9 mmHg; average intraocular pressure ([1]; for 8 weeks (overall average), control 25.4±3.6): 21.2±3.8 mmHg; intraocular pressure difference to the control ([1]; third day after the treatment (biggest difference)): 6.75±0.3 mmHg; average intraocular pressure ([1]; three days after the treatment, control 27.3±2.9): 20.7±2.6 mmHg; IL-1a expression compared to the control (IL-1a): less expressed; time after instillation up to which significant intraocular pressure reduction effects were retained (glaucoma white rats; day-time instillation test): up to 6 hours; time after instillation up to which intraocular pressure reduction effects were retained (glaucoma white rats; night-time instillation): up to 12 hours; CD11b expression in retina (CD11b): significantly higher; SDF-1 expression compared to the control (SDF-1): less expressed; time after instillation up to which significant intraocular pressure reduction was maintained (normal white rat; day-time instillation): up to 9 hours; time after instillation at which average intraocular pressure began to significantly decrease (normal white rat; day-time instillation, 50 μg/ml): 1 h; intraocular pressure reduction compared to the pre-instillation intraocular pressure (normal white rat; day-time instillation, 50 μg/ml 4 μl, maintained up to 9 hours after the instillation): −1.8±0.4 mmHg; time after instillation up to which significant intraocular pressure reduction was maintained (normal white rat; night-time instillation): up to 24 hours; intraocular pressure reduction compared to that before instillation (normal white rat; night-time instillation, 50 μg/ml, maintained up to 24 hours after the instillation): −1.5±0.4 mmHg; intraocular pressure reduction (in words) (normal white rat; night-time instillation, 1 hour after the instillation): significant intraocular pressure reduction
